Source: patent US20250177430A1, “Compositions Comprising NAD+ and Associated Methods of Treatment” (priority 2022, published 2025)

What was measured:
migraine and facial pain = conditions: through the sphenopalatine foramen into the pterygopalatine fossa; inventor's patients
[1] = tested on: opiate withdrawal symptoms; assay: Treatment of opiate/heroin withdrawal patients, delivery by SphenoCath to the sphenopalatine foramen; assay type: in vivo, human
Text: A device called the SphenoCath has been used to administer medication to the sphenopalatine foramen. The SphenoCath is a curved flexible catheter with a semi-rigid retractable sheath overlaying the catheter attached to a syringe. The SphenoCath is inserted through the nostril, until the tip of the SphenoCath reaches the anterior roof of the nasal cavity. The sheath of the SphenoCath is retracted allowing the curved inner catheter to drop over the anterior aspect of the middle turbinate. With the head correctly positioned medication is reliably dispensed to the area of the membrane covering the sphenopalatine foramen, and then through absorption into the pterygopalatine fossa and the nerves contained therein.
At the eleventh treatment dexamethasone was added to the combination. […] The treatment including dexamethasone was repeated 2 more times.

[2] = tested on: dissociative experience and discomfort; assay: Tolerability and dissociative effects in treated patients
Text: The individual components of the composition can be administered individually.

anxiety and depression = assay: Treatment of anxiety and depression patients, delivery by SphenoCath, subjective and family reports; assay type: in vivo, human; conditions: Patient 2; single IV treatment, about 30 mg
Experimental: Patient continued treatment over the course of a six-month period on an as-needed basis, which ranged from twice a week to every other month.
Inventor and patient decided to begin with the fairly typical six treatment induction phase used by IV ketamine clinics, but deliver it using the SphenoCath to the sphenopalatine foramen.
The fourth treatment was 2 ml of the combination with concentrations of 80 mg/ml NAD+, 12.5 mg/ml ketamine, and 5 mg/ml. […] Several of the treatments included a rotation of the head. For example, the combination was administered to the Patient and the head was rotated 30 degrees to the right for 5 minutes, then 30 degrees to the left for 5 minutes and then neutral for 5 minutes. Other times the head was rotated to the right at 30 degrees for 5 minutes, then 30 degrees to the left for 5 minutes and then neutral for 5 minutes.
Patient 5 completed the GAD 7 and PHQ 9 screening tools before treatment and two weeks after completion of the series. […] Patient returned for “booster” treatments four months later. […] The treatment regime also included 30-degree rotation to the right for 5 minutes, then 30-degree rotation to the left for 5 minutes, finally neutral for 5 minutes.
The first treatment was 1.8 ml of the combination with concentrations of 55 mg/ml NAD+, 14 mg/ml ketamine, 3 mg/ml. […]

`CCN(CC)CC(=O)Nc1c(C)cccc1C` [lidocaine] was tested, and the “treatment success in chronic/acute migraine, cluster headache, trigeminal and postherpetic neuralgia, post-concussion headache” value (migraine and facial pain) was “successful in most cases”, the opiate withdrawal symptoms ([1]; person, SphenoCath, treated twice 48 hours apart) was “noticeably improved” and the “need for buprenorphine during withdrawal” value ([1]; person, buprenorphine was necessary for previous detox episodes) was “able to go through withdrawal without the use bupenophrine”.

For `CNC1(c2ccccc2Cl)CCCCC1=O` (centres unmarked) [ketamine], the “patient experience with ketamine alone” value ([2]; IV and intranasal, compared with mixture of NAD+, lidocaine and ketamine) was “more intense and dissociative experience”, the “patient experience of IV ketamine” value ([2]; Patient 2, IV at a ketamine clinic, stopped after about 30 mg) was “very dissociative and unpleasant experience” and the “time until patient felt fine after discontinuation” value ([2]; Patient 2, single IV treatment, about 30 mg) was 30 to 45 min. The “patient state after ketamine alone” value ([2]; Patient 4, 15 minutes after intranasal delivery to sphenopalatine foramen, slightly lower dose than in the combined treatment) was “very agitated and uncomfortable” and the effect on mood (anxiety and depression) was “about the same as the intranasal treatments”.

For `NC(=O)c1ccc[n+]([C@@H]2O[C@H](COP(=O)([O-])OP(=O)(O)OC[C@H]3O[C@@H](n4cnc5c(N)ncnc54)[C@H](O)[C@@H]3O)[C@@H](O)[C@H]2O)c1` [NAD+], the “patient experience on receiving the component individually” value ([2]; NAD+ administered individually) was “less pleasant and can lead to discomfort”, the “effect on dissociative effects of the NMDA receptor antagonist” value ([2]; NAD+ in composition with lidocaine and ketamine) was “significantly diminishes the dissociative effects” and the “effect of adding NAD+ on chemical dependency (withdrawal symptoms and cravings)” value ([1]; added to lidocaine, general observation) was “significantly enhanced the effect on chemical dependency”.
